Data published in patent publication US20220089521A1, “ETHYLENEDIAMINE COMPOUND AND USE THEREOF” (priority 2018, published 2022).
≈ marks a conversion by molar mass, not a printed value. Where “and” joins values, the source holds several entries; their conditions need not be identical. Equal entries are not always repeated. Structures can show the parent of a compound that is named as a salt. Where two headings read alike, the source gives them in different places.

Legend:
[1] = tested on: Mycobacterium tuberculosis standard strain H37Rv; experiment: Microplate Alamar Blue Assay (MABA), minimum inhibitory concentration; format: cell-based; conditions: for MIC: Mycobacterium tuberculosis; for in vitro anti-tuberculosis activity (in words): experimental data in Table 1
[2] = H37Rv, 7H9 liquid medium, MABA, lowest drug concentration that prevented the color change (blue to pink), read-out: MIC

Row | Compound | melting point | MIC [1, 2] | MIC ([1]; H37RV) | in vitro anti-tuberculosis activity (in words) [1]
1 | CCCCCCCCNCCNC1C2CC3CC(C2)CC1C3 (stereo not drawn) (as salt: hydrochloride) [XHJ-5-3, N-(adamantan-2-yl)-N′-octyl-ethane-1,2-diamine dihydrochloride] | 224 to 226 °C | – | – | –
2 | CCCCCCNCCNC1C2CC3CC(C2)CC1C3 (stereo not drawn) (as salt: hydrochloride) [XHJ-5-5, N-(adamantan-2-yl)-N′-hexyl-ethane-1,2-diamine dihydrochloride] | 212 to 216 °C | – | – | –
3 | NNC(=O)c1ccncc1 [INH, isoniazid, reference compound] | – | 0.05 µg/mL (≈ 0.365 µM) | – | –
4 | CO[C@H]1/C=C/O[C@@]2(C)Oc3c(C)c(O)c4c(O)c(c(/C=N/N5CCN(C)CC5)c(O)c4c3C2=O)NC(=O)/C(C)=C\C=C\[C@H](C)[C@H](O)[C@@H](C)[C@@H](O)[C@@H](C)[C@H](OC(C)=O)[C@@H]1C [RFP, rifampin, reference compound] | – | 0.048 µg/mL (≈ 0.0583 µM) | – | –
5 | CC(C)=CCC/C(C)=C/C(=O)NCCNC1C2CC3CC(C2)CC1C3.Cl (stereo not drawn) [XHJ-2-32, 3,7-dimethyl-oct-2,6-dienoic acid [2-(adamantan-2-yl-amino)ethyl]amide hydrochloride] | 150 to 164 °C | – | 7.75 µg/mL | good activity
6 | CC(C)=CCC/C(C)=C/CNCC(=O)NC1C2CC3CC(C2)CC1C3.Cl (stereo not drawn) [XHJ-2-37, N-adamantan-2-yl-2-(3,7-dimethyl-oct-2,6-dienylamino)-acetamide hydrochloride] | 168 to 172 °C | – | < 0.5 µg/mL | good activity
7 | CCS(=O)(=O)N(C/C=C(\C)CCC=C(C)C)CCN.Cl [XHJ-2-39, N-geranyl-N-(2-aminoethyl)ethylsulfonamide hydrochloride] | 103 to 106 °C | > 32 µg/mL | – | –
8 | CC(C)=CCC/C(C)=C/CN(CCN)S(=O)(=O)c1ccc(C)cc1.Cl [XHJ-2-45, N-geranyl-N-(2-aminoethyl)-p-toluenesulfonamide hydrochloride] | 134 to 137 °C | 31.5 µg/mL | – | –
9 | CCS(=O)(=O)N(C/C=C(\C)CCC=C(C)C)CCNC1C2CC3CC(C2)CC1C3.Cl (stereo not drawn) [XHJ-3-1, N-adamantan-2-yl-N′,N′-ethylsulfonyl-(3,7-dimethyl-oct-2,6-dienyl)-ethane-1,2-diamine hydrochloride] | 108 to 112 °C and 103 to 106 °C | – | 6.96 µg/mL | good activity
10 | CC(C)=CCC/C(C)=C/CN(CCNC1C2CC3CC(C2)CC1C3)S(=O)(=O)c1ccc(C)cc1.Cl (stereo not drawn) [XHJ-3-3, N-adamantan-2-yl-N′,N′-p-toluenesulfonyl-(3,7-dimethyl-oct-2,6-dienyl)-ethane-1,2-diamine hydrochloride] | 179 to 182 °C | – | 3.76 µg/mL | good activity
11 | CC(C)=CCC/C(C)=C/CN(CCNC1C2CC3CC(C2)CC1C3)C(=O)/C=C(\C)CCC=C(C)C (stereo not drawn) [XHJ-3-11, N-adamantan-2-yl-N′,N′-(3,7-dimethyl-oct-2,6-dienyl)-(3,7-dimethyl-oct-2,6-dienoyl)-ethane-1,2-diamine] | – | – | > 32 µg/mL | –
12 | CC(C)=CCC/C(C)=C/CN(CCN(C(=O)c1c[nH]c2ccccc12)C1C2CC3CC(C2)CC1C3)C(=O)c1c[nH]c2ccccc12 (stereo not drawn) [XHJ-3-15, N,N-adamantan-2-yl-(3-indolylformyl)-N′,N′-(3,7-dimethyl-oct-2,6-dienyl)-(3-indolylformyl)-ethane-1,2-diamine] | 248 to 252 °C | – | > 32 µg/mL | –
13 | CC(C)=CCC/C(C)=C/CN(CCNC1C2CC3CC(C2)CC1C3)C(=O)CCc1c[nH]c2ccccc12 (stereo not drawn) [XHJ-3-27, N-adamantan-2-yl-N′,N′-(3-indolylpropionyl)-(3,7-dimethyl-oct-2,6-dienyl)-ethane-1,2-diamine] | – | – | 1.96 µg/mL (≈ 3.91 µM) | good activity
14 | COc1cc(C(=O)N(C/C=C(\C)CCC=C(C)C)CCNC2C3CC4CC(C3)CC2C4)cc(OC)c1OC (stereo not drawn) [XHJ-3-29, N-adamantan-2-yl-N′,N′-(3,4,5-trimethoxybenzoyl)-(3,7-dimethyl-oct-2,6-dienyl)-ethane-1,2-diamine] | – | – | 3.91 µg/mL (≈ 7.45 µM) | good activity
15 | CCCCCCCCCCC(=O)N(C/C=C(\C)CCC=C(C)C)CCNC1C2CC3CC(C2)CC1C3 (stereo not drawn) [XHJ-3-31, N-adamantan-2-yl-N′,N′-undecanoyl-(3,7-dimethyl-oct-2,6-dienyl)-ethane-1,2-diamine] | – | – | 2.84 µg/mL (≈ 5.7 µM) | good activity
16 | CC(C)=CCC/C(C)=C/CN(CCN)C1C2CC3CC(C2)CC1C3 (stereo not drawn) [XHJ-3-45, N,N-(adamantan-2-yl)-(3,7-dimethyl-oct-2,6-dienyl)-ethane-1,2-diamine] | 102 to 104 °C | – | < 0.5 µg/mL | better activity
17 | CCS(=O)(=O)NCCNC1C2CC3CC(C2)CC1C3 (stereo not drawn) [XHJ-3-46, N-(adamantan-2-yl)-N′-ethylsulfonyl-ethane-1,2-diamine] | – | > 32 µg/mL | – | –
18 | CC(C)=CCC/C(C)=C/CN(CCN(Cc1ccccc1)C1C2CC3CC(C2)CC1C3)Cc1ccccc1 (stereo not drawn) [XHJ-4-11, N,N-(adamantan-2-yl)-benzyl-N′,N′-(3,7-dimethyl-oct-2,6-dienyl)-benzyl-ethane-1,2-diamine] | – | – | 30.8 µg/mL (≈ 60.3 µM) | –
19 | CCCCCCCCN(C/C=C(\C)CCC=C(C)C)CCN(CCCCCCCC)C1C2CC3CC(C2)CC1C3 (stereo not drawn) [XHJ-4-15, N,N-(adamantan-2-yl)-octyl-N′,N′-(3,7-dimethyl-oct-2,6-dienyl)-octyl-ethane-1,2-diamine] | – | – | > 32 µg/mL | –
20 | CCCCCCCCNCCNC1C2CC3CC(C2)CC1C3 (stereo not drawn) [XHJ-5-3, N-(adamantan-2-yl)-N′-octyl-ethane-1,2-diamine dihydrochloride] | – | – | 0.986 µg/mL | better activity
21 | CCCCCCNCCNC1C2CC3CC(C2)CC1C3 (stereo not drawn) [XHJ-5-5, N-(adamantan-2-yl)-N′-hexyl-ethane-1,2-diamine dihydrochloride] | – | – | 0.982 µg/mL | better activity
22 | CC(C)=CCC/C(C)=C/CNCCNC(c1ccccc1)c1cccnc1 (stereo not drawn) [XHJ-5-8, N-(phenyl-pyridin-3-yl-methyl)-N′-(3,7-dimethyl-oct-2,6-dienyl)-ethane-1,2-diamine] | – | – | 16 µg/mL (≈ 44 µM) | better activity
23 | CC(C)=CCC/C(C)=C/CNCCNC(c1ccccn1)c1ccccn1 [XHJ-5-14, N-(dipyridin-2-yl-methyl)-N′-(3,7-dimethyl-oct-2,6-dienyl)-ethane-1,2-diamine] | – | – | 4 µg/mL (≈ 11 µM) | better activity
24 | C(CNC1C2CC3CC(C2)CC1C3)NC1CC1 (stereo not drawn) [XHJ-5-18, N-(adamantan-2-yl)-N′-cyclopropyl-ethane-1,2-diamine] | 197 to 200 °C | > 32 µg/mL | – | –
